SMILES strings stand for the structures.

Experimental findings from US9784725B2, “Light refraction imaging to measure liquid volume” (University of Pittsburgh—Of the Commonwealth System of …, priority 2016, dated 2017) are described below.

Assay [1] deals with differentiated HBE cultures. The assay is described as follows: ASL volume by refracted light microscopy of the meniscus, bumetanide treatment. It counts as cell-based, human. The conditions noted are these: 100 μM bumetanide for three days prior to measurement; mean ±SEM; control filters 10.6±1.0 μL; p<0.001. On the procedure: (§1) HBE cells were cultured from excess pathological tissue following lung transplantation and organ donation under protocols approved by the Universities of Pittsburgh and North Carolina Investigational Review Boards. Cells were studied following 3-6 weeks of culture and considered differentiated when a mucociliary phenotype was apparent on phase contrast microscopy. HBE cultures grown in a twenty four well plate on 0.33 cm^2 filter inserts (See, e.g., FIG. 1B) were visualized with a standard cell culture microscope (Olympus CK40) with a 5× plain light objective (Zeiss) and imaged using a Scion CFW 1610M camera with μManager (30). […] In order to standardize the quantification of the meniscus image, a custom script using the open-source ImageJ software was developed. […] The length of the meniscus can be determined as the length from where the grey value is greater than min to the end of the array and the area under the curve (AUC) is measured using the numerically integrated rectangular rule. […] Therefore, the correlation between the derived parameters of the intensity profile and the ASL volume were determined, rather than mathematically calculating the volume based on the AUC of the intensity profile. […] Thus, the ASL volume can be measured from the image of the meniscus by integrating the […] value with the experimentally derived calibration curve shown in FIG. 4B. […]

In assay [2] the test system is differentiated CF HBE cells. The assay is described as follows: ASL volume by refracted light microscopy after apical fluid bolus, isotonic versus hypertonic. The conditions noted are these: 5 μL PBS with 300 mM mannitol applied apically; ASL volume measured at 0, 4, 8, 24, 48 and 72 hours; FIG. 7. It counts as cell-based, human. On the procedure: as §1

In turn, `CCCCNc1cc(C(=O)O)cc(S(N)(=O)=O)c1Oc1ccccc1` [bumetanide] had an ASL volume in assay [1] of 1.1 ± 0.1 µL.

`OC[C@@H](O)[C@@H](O)[C@H](O)[C@H](O)CO` [mannitol]: the “ASL volume expansion compared to isotonic fluid” value in assay [2] was “more pronounced and prolonged ASL volume expansion”.
